These results are taken from ChEMBL document CHEMBL4806968, “Hipk inhibitors and methods of use thereof” (2020).

For test [1], the target named is T1, Ephrin type-A receptor 8 (Homo sapiens) (UniProt P29322).
T1 sequence (whole entry): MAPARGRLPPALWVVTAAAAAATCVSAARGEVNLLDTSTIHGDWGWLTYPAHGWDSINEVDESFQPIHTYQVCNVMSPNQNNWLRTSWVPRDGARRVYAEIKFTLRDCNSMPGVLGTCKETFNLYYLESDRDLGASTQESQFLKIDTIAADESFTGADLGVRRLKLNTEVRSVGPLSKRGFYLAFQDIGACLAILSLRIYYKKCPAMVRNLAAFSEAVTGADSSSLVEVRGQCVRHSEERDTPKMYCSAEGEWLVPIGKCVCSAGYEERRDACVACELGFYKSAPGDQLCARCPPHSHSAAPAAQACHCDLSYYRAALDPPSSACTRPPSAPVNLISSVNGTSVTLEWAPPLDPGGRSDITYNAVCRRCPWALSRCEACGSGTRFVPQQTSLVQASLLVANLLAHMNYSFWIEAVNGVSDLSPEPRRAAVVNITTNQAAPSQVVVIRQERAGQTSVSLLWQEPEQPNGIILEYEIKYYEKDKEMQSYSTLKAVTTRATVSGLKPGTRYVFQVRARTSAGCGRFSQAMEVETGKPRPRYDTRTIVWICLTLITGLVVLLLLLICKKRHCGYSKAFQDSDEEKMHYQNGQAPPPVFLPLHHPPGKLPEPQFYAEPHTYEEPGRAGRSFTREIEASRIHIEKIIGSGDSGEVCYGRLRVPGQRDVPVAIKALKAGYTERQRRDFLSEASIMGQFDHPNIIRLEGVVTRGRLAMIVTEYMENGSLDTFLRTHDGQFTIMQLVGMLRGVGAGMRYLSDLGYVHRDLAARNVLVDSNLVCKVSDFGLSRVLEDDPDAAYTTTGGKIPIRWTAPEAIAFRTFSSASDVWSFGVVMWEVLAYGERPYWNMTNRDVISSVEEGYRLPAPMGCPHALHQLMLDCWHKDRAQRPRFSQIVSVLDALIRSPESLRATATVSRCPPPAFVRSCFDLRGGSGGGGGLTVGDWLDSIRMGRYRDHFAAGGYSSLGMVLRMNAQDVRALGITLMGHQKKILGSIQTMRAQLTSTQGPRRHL
Nature of the test: Inhibition of EPH-A8 (unknown origin) at 0.5 uM relative to control.

For test [2], the target named is T2, Homeodomain-interacting protein kinase 4 (Homo sapiens) (UniProt Q8NE63).
T2 sequence (whole entry): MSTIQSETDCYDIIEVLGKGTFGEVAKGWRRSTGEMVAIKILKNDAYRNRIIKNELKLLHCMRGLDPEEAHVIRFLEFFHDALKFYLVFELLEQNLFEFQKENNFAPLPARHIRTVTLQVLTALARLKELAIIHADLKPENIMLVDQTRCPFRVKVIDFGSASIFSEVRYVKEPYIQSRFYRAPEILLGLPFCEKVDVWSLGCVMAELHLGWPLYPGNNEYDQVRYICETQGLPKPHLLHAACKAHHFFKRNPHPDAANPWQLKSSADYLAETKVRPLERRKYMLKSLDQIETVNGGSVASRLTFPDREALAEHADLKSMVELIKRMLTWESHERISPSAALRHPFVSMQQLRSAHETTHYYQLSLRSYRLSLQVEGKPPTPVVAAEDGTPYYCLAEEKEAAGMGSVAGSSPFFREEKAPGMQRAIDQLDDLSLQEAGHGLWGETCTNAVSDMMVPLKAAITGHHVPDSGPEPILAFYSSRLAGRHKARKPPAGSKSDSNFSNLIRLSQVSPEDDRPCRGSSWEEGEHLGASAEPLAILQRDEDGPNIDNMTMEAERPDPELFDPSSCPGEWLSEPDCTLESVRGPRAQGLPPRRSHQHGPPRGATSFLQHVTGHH
Nature of the test: Inhibition of HIPK4 (unknown origin) at 0.5 uM relative to control.

Test [3] concerns the target Serine/threonine-protein kinase 10 (Homo sapiens) (UniProt O94804). Kind of test: Inhibition of LOK (unknown origin) at 0.5 uM relative to control.
For test [4], the target named is T3, Ephrin type-A receptor 6 (Homo sapiens) (UniProt Q9UF33).
T3 sequence (whole entry): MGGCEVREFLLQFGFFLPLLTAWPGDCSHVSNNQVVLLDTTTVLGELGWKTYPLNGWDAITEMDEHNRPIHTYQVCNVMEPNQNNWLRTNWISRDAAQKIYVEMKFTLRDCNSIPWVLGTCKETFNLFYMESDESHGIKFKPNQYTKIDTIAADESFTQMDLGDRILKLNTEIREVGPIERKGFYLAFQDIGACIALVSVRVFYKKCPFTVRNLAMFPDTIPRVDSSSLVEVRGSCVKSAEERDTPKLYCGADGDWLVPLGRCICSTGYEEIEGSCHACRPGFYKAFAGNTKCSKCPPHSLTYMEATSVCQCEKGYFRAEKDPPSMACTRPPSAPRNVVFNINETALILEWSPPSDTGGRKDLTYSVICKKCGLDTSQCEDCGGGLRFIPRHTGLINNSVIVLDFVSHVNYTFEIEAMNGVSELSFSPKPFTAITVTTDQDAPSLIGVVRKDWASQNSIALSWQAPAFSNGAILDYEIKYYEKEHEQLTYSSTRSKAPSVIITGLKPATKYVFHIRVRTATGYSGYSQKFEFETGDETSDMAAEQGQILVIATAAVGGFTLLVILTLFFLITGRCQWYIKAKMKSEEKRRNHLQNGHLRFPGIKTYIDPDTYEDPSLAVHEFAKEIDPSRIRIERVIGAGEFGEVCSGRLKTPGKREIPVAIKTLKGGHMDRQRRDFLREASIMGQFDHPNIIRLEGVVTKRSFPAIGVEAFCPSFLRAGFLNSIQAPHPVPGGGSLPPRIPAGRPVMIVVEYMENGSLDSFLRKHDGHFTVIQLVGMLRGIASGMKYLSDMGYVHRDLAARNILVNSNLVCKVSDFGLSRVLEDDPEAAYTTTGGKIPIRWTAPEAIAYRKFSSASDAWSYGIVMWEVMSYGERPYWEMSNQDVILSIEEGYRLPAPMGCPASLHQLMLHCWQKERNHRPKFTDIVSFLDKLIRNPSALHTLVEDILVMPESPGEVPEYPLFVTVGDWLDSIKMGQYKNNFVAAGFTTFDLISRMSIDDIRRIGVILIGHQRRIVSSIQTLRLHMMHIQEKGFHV
Kind of test: Inhibition of EPHA6 (unknown origin) at 0.5 uM relative to control.

The target in test [5] is High affinity nerve growth factor receptor (Homo sapiens) (UniProt P04629). Kind of test: Inhibition of TRKA (unknown origin) at 0.5 uM relative to control.
In test [6] the target is Protein-tyrosine kinase 6 (Homo sapiens) (UniProt Q13882). Kind of test: Inhibition of BRK (unknown origin) at 0.5 uM relative to control.
The target in test [7] is Mast/stem cell growth factor receptor Kit (Homo sapiens) (UniProt P10721). Nature of the test: Inhibition of KIT (unknown origin) at 0.5 uM relative to control.
Test [8] concerns the target BDNF/NT-3 growth factors receptor (Homo sapiens) (UniProt Q16620). Kind of test: Inhibition of TRKB (unknown origin) at 0.5 uM relative to control.

Chain of BDNF/NT-3 growth factors receptor (Homo sapiens) (Q16620 32-822 limits assumed): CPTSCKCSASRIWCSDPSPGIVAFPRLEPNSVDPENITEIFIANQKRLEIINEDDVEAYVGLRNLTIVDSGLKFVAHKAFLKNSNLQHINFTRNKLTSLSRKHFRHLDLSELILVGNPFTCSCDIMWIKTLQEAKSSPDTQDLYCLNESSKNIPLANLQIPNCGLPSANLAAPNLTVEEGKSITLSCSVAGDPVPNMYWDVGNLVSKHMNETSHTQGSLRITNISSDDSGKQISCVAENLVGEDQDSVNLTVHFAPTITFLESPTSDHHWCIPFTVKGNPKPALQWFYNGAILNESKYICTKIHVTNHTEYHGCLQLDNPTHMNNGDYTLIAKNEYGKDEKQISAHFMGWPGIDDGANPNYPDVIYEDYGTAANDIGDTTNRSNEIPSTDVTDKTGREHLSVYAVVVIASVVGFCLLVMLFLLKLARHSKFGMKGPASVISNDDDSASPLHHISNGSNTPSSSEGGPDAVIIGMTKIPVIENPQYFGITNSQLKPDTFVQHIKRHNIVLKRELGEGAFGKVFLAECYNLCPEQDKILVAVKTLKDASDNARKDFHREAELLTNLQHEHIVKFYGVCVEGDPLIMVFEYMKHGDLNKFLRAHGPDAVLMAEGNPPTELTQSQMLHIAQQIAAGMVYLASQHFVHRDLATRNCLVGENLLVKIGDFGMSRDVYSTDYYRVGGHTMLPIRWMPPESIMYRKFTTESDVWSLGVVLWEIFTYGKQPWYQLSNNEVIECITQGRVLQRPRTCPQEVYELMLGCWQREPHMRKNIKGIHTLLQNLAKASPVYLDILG
Chain of Serine/threonine-protein kinase 10 (Homo sapiens) (O94804 whole entry, looked up): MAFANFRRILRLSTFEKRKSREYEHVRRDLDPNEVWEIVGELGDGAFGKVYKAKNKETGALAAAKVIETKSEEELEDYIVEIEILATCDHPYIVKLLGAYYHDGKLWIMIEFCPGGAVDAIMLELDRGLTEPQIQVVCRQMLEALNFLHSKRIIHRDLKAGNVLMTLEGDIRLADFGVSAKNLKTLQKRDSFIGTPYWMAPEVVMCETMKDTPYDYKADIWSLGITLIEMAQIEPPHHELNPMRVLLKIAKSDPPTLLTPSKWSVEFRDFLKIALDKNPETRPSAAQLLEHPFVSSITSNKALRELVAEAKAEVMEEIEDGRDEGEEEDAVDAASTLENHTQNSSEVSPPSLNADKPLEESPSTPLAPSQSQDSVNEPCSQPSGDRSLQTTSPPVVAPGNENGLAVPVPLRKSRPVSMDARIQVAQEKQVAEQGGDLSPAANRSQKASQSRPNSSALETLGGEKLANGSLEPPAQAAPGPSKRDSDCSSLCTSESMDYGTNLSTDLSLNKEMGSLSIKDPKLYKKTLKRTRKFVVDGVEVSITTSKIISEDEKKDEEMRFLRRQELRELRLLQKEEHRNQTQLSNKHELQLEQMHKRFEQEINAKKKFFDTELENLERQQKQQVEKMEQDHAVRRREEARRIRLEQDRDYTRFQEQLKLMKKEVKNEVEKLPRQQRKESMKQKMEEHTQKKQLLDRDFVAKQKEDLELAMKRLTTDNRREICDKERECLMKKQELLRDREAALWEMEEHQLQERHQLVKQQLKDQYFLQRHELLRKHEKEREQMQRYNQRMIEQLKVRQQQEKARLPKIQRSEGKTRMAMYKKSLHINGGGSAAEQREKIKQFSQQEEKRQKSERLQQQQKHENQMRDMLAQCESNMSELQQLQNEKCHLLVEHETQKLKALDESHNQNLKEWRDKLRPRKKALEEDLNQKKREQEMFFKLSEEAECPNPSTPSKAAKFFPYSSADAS
Chain of Mast/stem cell growth factor receptor Kit (Homo sapiens) (P10721 whole entry): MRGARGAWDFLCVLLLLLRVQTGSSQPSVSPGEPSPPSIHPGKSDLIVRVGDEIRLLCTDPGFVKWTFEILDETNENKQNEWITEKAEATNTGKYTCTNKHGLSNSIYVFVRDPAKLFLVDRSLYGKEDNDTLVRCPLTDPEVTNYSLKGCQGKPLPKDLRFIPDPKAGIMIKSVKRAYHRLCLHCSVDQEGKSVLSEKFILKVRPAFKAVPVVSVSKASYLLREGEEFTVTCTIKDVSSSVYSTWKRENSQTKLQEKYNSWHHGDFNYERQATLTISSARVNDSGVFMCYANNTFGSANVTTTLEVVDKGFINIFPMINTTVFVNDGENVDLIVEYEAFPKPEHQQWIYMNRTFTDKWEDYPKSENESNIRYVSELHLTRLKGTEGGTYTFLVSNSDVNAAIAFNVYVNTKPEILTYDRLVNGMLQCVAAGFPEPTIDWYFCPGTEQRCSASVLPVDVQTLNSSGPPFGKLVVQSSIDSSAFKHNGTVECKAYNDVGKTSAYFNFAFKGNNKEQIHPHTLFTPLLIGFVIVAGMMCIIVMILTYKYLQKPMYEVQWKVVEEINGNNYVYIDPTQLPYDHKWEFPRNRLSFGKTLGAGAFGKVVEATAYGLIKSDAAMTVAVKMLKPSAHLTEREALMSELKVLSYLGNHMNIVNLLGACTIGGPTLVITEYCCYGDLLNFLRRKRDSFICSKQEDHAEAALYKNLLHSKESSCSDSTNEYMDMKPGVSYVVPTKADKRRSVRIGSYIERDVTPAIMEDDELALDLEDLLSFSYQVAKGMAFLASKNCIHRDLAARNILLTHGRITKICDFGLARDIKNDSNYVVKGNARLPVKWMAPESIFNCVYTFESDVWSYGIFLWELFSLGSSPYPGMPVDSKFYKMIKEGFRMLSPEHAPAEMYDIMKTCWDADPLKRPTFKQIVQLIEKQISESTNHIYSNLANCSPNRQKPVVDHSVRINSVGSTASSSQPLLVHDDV
Chain of High affinity nerve growth factor receptor (Homo sapiens) (P04629 33-796 limits assumed): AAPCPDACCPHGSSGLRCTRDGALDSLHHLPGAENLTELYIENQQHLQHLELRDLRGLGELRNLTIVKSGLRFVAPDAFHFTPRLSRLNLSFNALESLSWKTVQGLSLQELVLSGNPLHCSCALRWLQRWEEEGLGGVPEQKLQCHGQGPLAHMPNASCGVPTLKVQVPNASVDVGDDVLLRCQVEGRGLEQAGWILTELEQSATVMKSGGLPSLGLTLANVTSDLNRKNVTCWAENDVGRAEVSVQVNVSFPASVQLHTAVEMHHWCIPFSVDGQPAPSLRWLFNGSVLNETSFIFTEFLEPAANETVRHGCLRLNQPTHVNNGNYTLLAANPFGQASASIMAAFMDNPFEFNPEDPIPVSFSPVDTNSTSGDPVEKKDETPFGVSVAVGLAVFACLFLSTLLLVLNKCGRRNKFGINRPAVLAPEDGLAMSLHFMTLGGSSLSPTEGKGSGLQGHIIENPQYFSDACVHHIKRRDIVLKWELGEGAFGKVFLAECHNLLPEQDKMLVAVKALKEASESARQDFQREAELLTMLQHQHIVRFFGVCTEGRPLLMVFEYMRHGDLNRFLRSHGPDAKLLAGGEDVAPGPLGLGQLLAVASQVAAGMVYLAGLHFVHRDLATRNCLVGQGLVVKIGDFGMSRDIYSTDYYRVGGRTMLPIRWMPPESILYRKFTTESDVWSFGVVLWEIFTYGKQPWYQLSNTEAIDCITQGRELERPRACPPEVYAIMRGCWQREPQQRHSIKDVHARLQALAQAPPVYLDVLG
Chain of Protein-tyrosine kinase 6 (Homo sapiens) (Q13882 whole entry, looked up): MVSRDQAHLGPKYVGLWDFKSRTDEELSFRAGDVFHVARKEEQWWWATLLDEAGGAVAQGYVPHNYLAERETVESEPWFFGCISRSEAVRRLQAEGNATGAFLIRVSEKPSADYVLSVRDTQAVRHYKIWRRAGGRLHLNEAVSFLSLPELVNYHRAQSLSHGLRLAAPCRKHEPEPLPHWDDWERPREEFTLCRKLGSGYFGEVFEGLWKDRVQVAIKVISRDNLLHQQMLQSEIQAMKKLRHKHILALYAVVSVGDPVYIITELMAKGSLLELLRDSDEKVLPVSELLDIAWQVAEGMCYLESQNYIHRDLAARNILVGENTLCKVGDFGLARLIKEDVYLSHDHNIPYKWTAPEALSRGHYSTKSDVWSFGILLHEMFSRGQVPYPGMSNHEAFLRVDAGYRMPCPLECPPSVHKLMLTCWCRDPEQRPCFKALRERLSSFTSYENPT

Take `CNC(=O)c1cc(Oc2ccc(NC(=O)c3nc(SC)n(CCN(C)C)c3-c3ccc(F)cc3)cc2)ccn1`: the inhibition in test [1] was found to be 57%; in test [2] it was 91%; in test [3] it was 47%; in test [4], 58%; in test [5] it was 42%; in test [6] it was 44%. Besides, the results for the inhibition in test [7] and in test [8] were 27% and 51%, respectively.

In the case of `CNC(=O)c1cc(Oc2ccc(NC(=O)c3nc(S(C)(=O)=O)sc3-c3ccc(F)cc3)cc2)ccn1`, the inhibition in test [2] came out at 96%; in test [5] it was 36%; in test [6], 34%; in test [7] it was 25%.

Consider `CNC(=O)c1cc(Oc2ccc(NC(=O)c3nc(SC)oc3-c3ccc(F)cc3)cc2F)ccn1`, for which the inhibition was 42% in test [1]; 98% in test [2]; 55% in test [3]; 69% in test [4]; 43% in test [5]; 77% in test [6]. The same molecule gave an inhibition in test [8] of 36%.

Turning to `CNC(=O)c1cc(Oc2ccc(NC(=O)c3nc(C(F)(F)F)sc3-c3ccc(F)cc3)cc2)ccn1`, the inhibition was found to be 50% in test [1]; 95% in test [2]; 58% in test [3]; 67% in test [4]; 87% in test [6]; 33% in test [7].

Take `CSc1nc(C(=O)Nc2ccc(Oc3cc4cnn(C)c4cc3Br)cc2)c(-c2ccc(F)cc2)o1`: the inhibition in test [1] was 25%; in test [2] it was 87%; in test [3], 36%; in test [4] it was 19%.

For `CNC(=O)c1cc(Oc2ccc(NC(=O)c3nc(SC)[nH]c3-c3ccc(F)cc3)cc2)ccn1`, the inhibition turned out to be 96% in test [1]; 97% in test [2]; 93% in test [3]; 90% in test [6]; 83% in test [8].

`CNC(=O)c1cc(Oc2ccc(NC(=O)c3n[nH]nc3-c3ccc(F)cc3)cc2)ccn1`: the inhibition in test [2] was found to be 84%; in test [3] it was 26%; in test [4] it was 27%; in test [5], 43%; in test [6], 32%; in test [7] it was 65%. This molecule also came in with an inhibition in test [8] of 40%.

`CNC(=O)c1cc(Oc2ccc(NC(=O)c3nc(NC)sc3-c3ccc(F)cc3)cc2)ccn1`: the inhibition in test [1] amounted to 58%; in test [2], 96%; in test [3] it was 50%; in test [4], 62%; in test [5], 58%; in test [6], 53%. Also, the inhibition was determined as 47% in test [7] and 71% in test [8].

As to `CNC(=O)c1cc(Oc2ccc(NC(=O)c3nc(SC)oc3-c3ccc(F)cc3)cc2)ccn1`, the inhibition amounted to 99% in test [2]; 66% in test [3]; 69% in test [4]; 47% in test [5]; 80% in test [6]; 40% in test [7]. Further, the inhibition in test [8] is 40%.

The inhibition is the percentage by which the read-out fell short of the control. A lower inhibition goes with a response near the control.
